Where a SMILES comes first, the peptide text is derived from it. Bridges are numbered along the chain shown (N, C = ends). [ ]: non-standard residue; d: D form. hPhe(3-Cl-4-CF3) = N[C@@H](CCc1ccc(C(F)(F)F)c(Cl)c1)C(=O)O; NPrPhe(4-CF3) = CCCN[C@@H](Cc1ccc(C(F)(F)F)cc1)C(=O)O; NMeGly(cPent) = CN[C@H](C(=O)O)C1CCCC1; Pro(4,4-F2) = O=C(O)[C@@H]1CC(F)(F)CN1; Hyp = O=C(O)[C@@H]1C[C@@H](O)CN1; NMeD = CN[C@@H](CC(=O)O)C(=O)O; NMeL = CN[C@@H](CC(C)C)C(=O)O; NMeA = CN[C@@H](C)C(=O)O; Ac5c = NC1(C(=O)O)CCCC1; Aze = O=C(O)[C@@H]1CCN1; Ac4c = NC1(C(=O)O)CCC1; Sar = CNCC(=O)O
Legend:
[1] = molecular target: GDP-bound NRAS wild-type protein (Homo sapiens, UniProt P01111); assay: Binding to NRAS by surface plasmon resonance (SPR), Single Cycle Kinetics; conditions: KD ratio NRAS/KRAS, SPR
[2] = molecular target: GDP-bound HRAS wild-type protein (Homo sapiens, UniProt P01112); assay: Binding to HRAS by surface plasmon resonance (SPR), Single Cycle Kinetics; conditions: KD ratio HRAS/KRAS, SPR
Sequence of GDP-bound HRAS wild-type protein (P01112 whole entry): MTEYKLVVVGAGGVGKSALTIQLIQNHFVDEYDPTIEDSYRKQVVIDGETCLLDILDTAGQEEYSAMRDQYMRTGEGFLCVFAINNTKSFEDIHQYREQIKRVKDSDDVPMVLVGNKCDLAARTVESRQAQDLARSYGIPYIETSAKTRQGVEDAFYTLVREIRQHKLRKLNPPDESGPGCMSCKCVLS

Sequence of GDP-bound NRAS wild-type protein (P01111 whole entry): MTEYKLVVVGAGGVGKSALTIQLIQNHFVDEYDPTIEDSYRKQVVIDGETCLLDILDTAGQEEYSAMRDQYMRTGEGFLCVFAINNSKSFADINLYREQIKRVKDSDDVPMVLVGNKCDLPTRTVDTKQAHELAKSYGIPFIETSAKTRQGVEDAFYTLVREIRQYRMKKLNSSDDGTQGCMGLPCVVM

Row | SMILES | NRAS/KRAS (ratio of KD value with respect to GDP-bound NRAS wild-type protein to KD value with respect to KRAS) [1] | HRAS/KRAS (ratio of KD value with respect to GDP-bound HRAS wild-type protein to KD value with respect to KRAS) [2]
1 | CCCN1C(=O)CN(C)C(=O)[C@@H]2CCN2C(=O)[C@H]([C@@H](C)CC)NC(=O)[C@H](CC(C)C)N(C)C(=O)C[C@@H](C(=O)N(C)C)N(C)C(=O)[C@H](C2CCCC2)N(C)C(=O)C2(CCC2)NC(=O)[C@@H]2CCCN2C(=O)[C@H](CCc2ccc(C(F)(F)F)c(Cl)c2)NC(=O)CN(C)C(=O)[C@@H]1Cc1ccc(C(F)(F)F)cc1 [PP0430] ([NMeL]I[Aze][Sar][NPrPhe(4-CF3)][Sar][hPhe(3-Cl-4-CF3)]P[Ac4c][NMeGly(cPent)][NMeD]-NMe2; lactam N-11) | B (a compound having 3 or more and less than 10 is denoted as B) | B (a compound having 3 or more and less than 10 is denoted as B)
2 | CCCN1C(=O)CN(C)C(=O)[C@@H]2CCN2C(=O)[C@H]([C@@H](C)CC)NC(=O)[C@H](CC(C)C)N(C)C(=O)C[C@@H](C(=O)N(C)C)N(C)C(=O)[C@H](C2CCCC2)N(C)C(=O)C2(CCCC2)NC(=O)[C@@H]2CC(F)(F)CN2C(=O)[C@H](CCc2ccc(C(F)(F)F)c(Cl)c2)NC(=O)CN(C)C(=O)[C@@H]1Cc1ccc(C(F)(F)F)cc1 [PP0431] ([NMeL]I[Aze][Sar][NPrPhe(4-CF3)][Sar][hPhe(3-Cl-4-CF3)][Pro(4,4-F2)][Ac5c][NMeGly(cPent)][NMeD]-NMe2; lactam N-11) | B (a compound having 3 or more and less than 10 is denoted as B) | C (A compound having a KD ratio of 0.1 or more and less than 3 is denoted as C)
3 | CCCN1C(=O)CN(C)C(=O)[C@@H]2CCN2C(=O)[C@H]([C@@H](C)CC)NC(=O)[C@H](CC(C)C)N(C)C(=O)C[C@@H](C(=O)N(C)C)N(C)C(=O)[C@H](C2CCCC2)N(C)C(=O)C2(CCC2)NC(=O)[C@@H]2CC(F)(F)CN2C(=O)[C@H](CCc2ccc(C(F)(F)F)c(Cl)c2)NC(=O)CN(C)C(=O)[C@@H]1Cc1ccc(C(F)(F)F)cc1 [PP0432] ([NMeL]I[Aze][Sar][NPrPhe(4-CF3)][Sar][hPhe(3-Cl-4-CF3)][Pro(4,4-F2)][Ac4c][NMeGly(cPent)][NMeD]-NMe2; lactam N-11) | B (a compound having 3 or more and less than 10 is denoted as B) | B (a compound having 3 or more and less than 10 is denoted as B)
4 | CCCN1C(=O)CN(C)C(=O)[C@@H]2CCN2C(=O)[C@H]([C@@H](C)CC)NC(=O)[C@H](CC(C)C)N(C)C(=O)C[C@@H](C(=O)N(C)C)N(C)C(=O)[C@H](C2CCCC2)N(C)C(=O)C2(CCCC2)NC(=O)[C@@H]2C[C@@H](OCC)CN2C(=O)[C@H](CCc2ccc(C(F)(F)F)c(Cl)c2)NC(=O)CN(C)C(=O)[C@@H]1Cc1ccc(C(F)(F)F)cc1 [PP0433] ([NMeL]I[Aze][Sar][NPrPhe(4-CF3)][Sar][hPhe(3-Cl-4-CF3)][Hyp](Et)[Ac5c][NMeGly(cPent)][NMeD]-NMe2; lactam N-11) | B (a compound having 3 or more and less than 10 is denoted as B) | B (a compound having 3 or more and less than 10 is denoted as B)
5 | CCCN1C(=O)[C@@H]2CCN2C(=O)[C@H](C)N(C)C(=O)[C@H]([C@@H](C)CC)NC(=O)[C@H](CC(C)C)N(C)C(=O)C[C@@H](C(=O)N(C)C)N(C)C(=O)[C@H](C2CCCC2)N(C)C(=O)C2(CCC2)NC(=O)[C@@H]2CCCN2C(=O)[C@H](CCc2ccc(C(F)(F)F)c(Cl)c2)NC(=O)CN(C)C(=O)[C@@H]1Cc1ccc(C(F)(F)F)cc1 [PP0435] ([NMeL]I[NMeA][Aze][NPrPhe(4-CF3)][Sar][hPhe(3-Cl-4-CF3)]P[Ac4c][NMeGly(cPent)][NMeD]-NMe2; lactam N-11) | C (A compound having a KD ratio of 0.1 or more and less than 3 is denoted as C) | C (A compound having a KD ratio of 0.1 or more and less than 3 is denoted as C)
6 | CCCN1C(=O)[C@@H]2CCN2C(=O)[C@H](C)N(C)C(=O)[C@H]([C@@H](C)CC)NC(=O)[C@H](CC(C)C)N(C)C(=O)C[C@@H](C(=O)N(C)C)N(C)C(=O)[C@H](C2CCCC2)N(C)C(=O)C2(CCCC2)NC(=O)[C@@H]2CC(F)(F)CN2C(=O)[C@H](CCc2ccc(C(F)(F)F)c(Cl)c2)NC(=O)CN(C)C(=O)[C@@H]1Cc1ccc(C(F)(F)F)cc1 [PP0436] ([NMeL]I[NMeA][Aze][NPrPhe(4-CF3)][Sar][hPhe(3-Cl-4-CF3)][Pro(4,4-F2)][Ac5c][NMeGly(cPent)][NMeD]-NMe2; lactam N-11) | C (A compound having a KD ratio of 0.1 or more and less than 3 is denoted as C) | C (A compound having a KD ratio of 0.1 or more and less than 3 is denoted as C)
7 | CCCN1C(=O)[C@@H]2CCN2C(=O)[C@H](C)N(C)C(=O)[C@H]([C@@H](C)CC)NC(=O)[C@H](CC(C)C)N(C)C(=O)C[C@@H](C(=O)N(C)C)N(C)C(=O)[C@H](C2CCCC2)N(C)C(=O)C2(CCC2)NC(=O)[C@@H]2CC(F)(F)CN2C(=O)[C@H](CCc2ccc(C(F)(F)F)c(Cl)c2)NC(=O)CN(C)C(=O)[C@@H]1Cc1ccc(C(F)(F)F)cc1 [PP0437] ([NMeL]I[NMeA][Aze][NPrPhe(4-CF3)][Sar][hPhe(3-Cl-4-CF3)][Pro(4,4-F2)][Ac4c][NMeGly(cPent)][NMeD]-NMe2; lactam N-11) | C (A compound having a KD ratio of 0.1 or more and less than 3 is denoted as C) | B (a compound having 3 or more and less than 10 is denoted as B)
8 | CCCN1C(=O)[C@@H]2CCN2C(=O)[C@H](C)N(C)C(=O)[C@H]([C@@H](C)CC)NC(=O)[C@H](CC(C)C)N(C)C(=O)C[C@@H](C(=O)N(C)C)N(C)C(=O)[C@H](C2CCCC2)N(C)C(=O)C2(CCCC2)NC(=O)[C@@H]2C[C@@H](OCC)CN2C(=O)[C@H](CCc2ccc(C(F)(F)F)c(Cl)c2)NC(=O)CN(C)C(=O)[C@@H]1Cc1ccc(C(F)(F)F)cc1 [PP0438] ([NMeL]I[NMeA][Aze][NPrPhe(4-CF3)][Sar][hPhe(3-Cl-4-CF3)][Hyp](Et)[Ac5c][NMeGly(cPent)][NMeD]-NMe2; lactam N-11) | C (A compound having a KD ratio of 0.1 or more and less than 3 is denoted as C) | C (A compound having a KD ratio of 0.1 or more and less than 3 is denoted as C)
9 | CCCN1C(=O)[C@@H]2CCN2C(=O)CN(C)C(=O)[C@H]([C@@H](C)CC)NC(=O)[C@H](CC(C)C)N(C)C(=O)C[C@@H](C(=O)N(C)C)N(C)C(=O)[C@H](C2CCCC2)N(C)C(=O)C2(CCCC2)NC(=O)[C@@H]2CCCN2C(=O)[C@H](CCc2ccc(C(F)(F)F)c(Cl)c2)NC(=O)CN(C)C(=O)[C@@H]1Cc1ccc(C(F)(F)F)cc1 [PP0440] ([NMeL]I[Sar][Aze][NPrPhe(4-CF3)][Sar][hPhe(3-Cl-4-CF3)]P[Ac5c][NMeGly(cPent)][NMeD]-NMe2; lactam N-11) | C (A compound having a KD ratio of 0.1 or more and less than 3 is denoted as C) | B (a compound having 3 or more and less than 10 is denoted as B)
10 | CCCN1C(=O)[C@@H]2CCN2C(=O)CN(C)C(=O)[C@H]([C@@H](C)CC)NC(=O)[C@H](CC(C)C)N(C)C(=O)C[C@@H](C(=O)N(C)C)N(C)C(=O)[C@H](C2CCCC2)N(C)C(=O)C2(CCC2)NC(=O)[C@@H]2CCCN2C(=O)[C@H](CCc2ccc(C(F)(F)F)c(Cl)c2)NC(=O)CN(C)C(=O)[C@@H]1Cc1ccc(C(F)(F)F)cc1 [PP0441] ([NMeL]I[Sar][Aze][NPrPhe(4-CF3)][Sar][hPhe(3-Cl-4-CF3)]P[Ac4c][NMeGly(cPent)][NMeD]-NMe2; lactam N-11) | C (A compound having a KD ratio of 0.1 or more and less than 3 is denoted as C) | C (A compound having a KD ratio of 0.1 or more and less than 3 is denoted as C)
11 | CCCN1C(=O)[C@@H]2CCN2C(=O)CN(C)C(=O)[C@H]([C@@H](C)CC)NC(=O)[C@H](CC(C)C)N(C)C(=O)C[C@@H](C(=O)N(C)C)N(C)C(=O)[C@H](C2CCCC2)N(C)C(=O)C2(CCCC2)NC(=O)[C@@H]2CC(F)(F)CN2C(=O)[C@H](CCc2ccc(C(F)(F)F)c(Cl)c2)NC(=O)CN(C)C(=O)[C@@H]1Cc1ccc(C(F)(F)F)cc1 [PP0442] ([NMeL]I[Sar][Aze][NPrPhe(4-CF3)][Sar][hPhe(3-Cl-4-CF3)][Pro(4,4-F2)][Ac5c][NMeGly(cPent)][NMeD]-NMe2; lactam N-11) | C (A compound having a KD ratio of 0.1 or more and less than 3 is denoted as C) | C (A compound having a KD ratio of 0.1 or more and less than 3 is denoted as C)
12 | CCCN1C(=O)[C@@H]2CCN2C(=O)CN(C)C(=O)[C@H]([C@@H](C)CC)NC(=O)[C@H](CC(C)C)N(C)C(=O)C[C@@H](C(=O)N(C)C)N(C)C(=O)[C@H](C2CCCC2)N(C)C(=O)C2(CCC2)NC(=O)[C@@H]2CC(F)(F)CN2C(=O)[C@H](CCc2ccc(C(F)(F)F)c(Cl)c2)NC(=O)CN(C)C(=O)[C@@H]1Cc1ccc(C(F)(F)F)cc1 [PP0443] ([NMeL]I[Sar][Aze][NPrPhe(4-CF3)][Sar][hPhe(3-Cl-4-CF3)][Pro(4,4-F2)][Ac4c][NMeGly(cPent)][NMeD]-NMe2; lactam N-11) | C (A compound having a KD ratio of 0.1 or more and less than 3 is denoted as C) | C (A compound having a KD ratio of 0.1 or more and less than 3 is denoted as C)
